Test results published in patent US20170190671A1, “BIS(ARYL)CATECHOL DERIVATIVES AS HERBICIDES” (E I DU PONT DE NEMOURS AND COMPANY, priority 2014, published 2017).

What was measured:
Format in all cases: in vivo
rice (Oryza sativa) = assay: Test B flooded paddy; conditions: Oryza sativa, 336 h; 250 g ai/ha, Flood, 13 to 15 days, scale 0 (no effect) to 100 (complete control); read-out: Plant response rating, Rice
In short: (§1)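 Visual injury ratings against untreated controls, taken 13 to 15 days after compound was added to paddy water standing 3 cm above the soil.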

[1] = test system: ducksalad (Heteranthera limosa); assay: Test B flooded paddy; conditions: Heteranthera limosa, 336 h; 250 g ai/ha, Flood, 13 to 15 days, scale 0 (no effect) to 100 (complete control); read-out: Plant response rating, Ducksalad
In short: as §1

[2] = test system: barnyardgrass (Echinochloa crus-galli); assay: Test B flooded paddy; conditions: Echinochloa crus-galli, 336 h; 250 g ai/ha, Flood, 13 to 15 days, scale 0 (no effect) to 100 (complete control); read-out: Plant response rating, Barnyardgrass
In short: as §1

[3] = test system: sedge, umbrella (small-flower umbrella sedge, Cyperus difformis); assay: Test B flooded paddy; conditions: Cyperus difformis, 336 h; 250 g ai/ha, Flood, 13 to 15 days, scale 0 (no effect) to 100 (complete control); read-out: Plant response rating, Sedge, Umbrella
In short: as §1

[4] = test system: pigweed (Amaranthus retroflexus); assay: Test A preemergence; conditions: Amaranthus retroflexus, pre-emergence, 240 h, 1000 g ai/ha, 0 to 100 scale, read-out: Plant response rating, Pigweed
In short: (§2)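 Scoring: eye-based comparison with untreated controls, 0 for no effect through 100 for complete control, at about day 10. Treatments: directed soil spray preemergence; foliar spray postemergence on 2–10 cm plants at the one- to two-leaf stage. Medium: loam soil with sand.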

[5] = test system: ragweed (common ragweed, Ambrosia elatior); assay: Test A preemergence; conditions: Ambrosia artemisiifolia, pre-emergence, 240 h, 1000 g ai/ha, 0 to 100 scale, read-out: Plant response rating, Ragweed
In short: as §2

kochia (Kochia scoparia) [6] = assay: Test A preemergence; conditions: Bassia scoparia, pre-emergence, 240 h, 1000 g ai/ha, 0 to 100 scale, read-out: Plant response rating, Kochia
In short: as §2

[7] = test system: Italian ryegrass (Lolium multiflorum); assay: Test A preemergence; conditions: Lolium multiflorum, pre-emergence, 240 h, 1000 g ai/ha, 0 to 100 scale, read-out: Plant response rating, Ryegrass, Italian
In short: as §2

[8] = test system: barnyardgrass (Echinochloa crus-galli); assay: Test A preemergence; conditions: Echinochloa crus-galli, pre-emergence, 240 h, 1000 g ai/ha, 0 to 100 scale, read-out: Plant response rating, Barnyardgrass
In short: as §2

[9] = test system: giant foxtail (Setaria faberii); assay: Test A preemergence; conditions: Setaria faberi, pre-emergence, 240 h, 1000 g ai/ha, 0 to 100 scale, read-out: Plant response rating, Foxtail, Giant
In short: as §2

[10] = test system: pigweed (Amaranthus retroflexus); assay: Test A postemergence; conditions: Amaranthus retroflexus, post-emergence, 240 h, 1000 g ai/ha, 0 to 100 scale, read-out: Plant response rating, Pigweed
In short: as §2

[11] = test system: galium (catchweed bedstraw, Galium aparine); assay: Test A postemergence; conditions: Galium, post-emergence, 240 h, 1000 g ai/ha, 0 to 100 scale, read-out: Plant response rating, Galium
In short: as §2

[12] = test system: ragweed (common ragweed, Ambrosia elatior); assay: Test A postemergence; conditions: Ambrosia artemisiifolia, post-emergence, 240 h, 1000 g ai/ha, 0 to 100 scale, read-out: Plant response rating, Ragweed
In short: as §2

[13] = test system: blackgrass (Alopecurus myosuroides); assay: Test A postemergence; conditions: Alopecurus myosuroides, post-emergence, 240 h, 1000 g ai/ha, 0 to 100 scale, read-out: Plant response rating, Blackgrass
In short: as §2

[14] = test system: wheat (Triticum aestivum); assay: Test A postemergence; conditions: Triticum aestivum, post-emergence, 240 h, 1000 g ai/ha, 0 to 100 scale, read-out: Plant response rating, Wheat
In short: as §2

kochia (Kochia scoparia) [15] = assay: Test A postemergence; conditions: Bassia scoparia, post-emergence, 240 h, 1000 g ai/ha, 0 to 100 scale, read-out: Plant response rating, Kochia
In short: as §2

[16] = test system: Italian ryegrass (Lolium multiflorum); assay: Test A postemergence; conditions: Lolium multiflorum, post-emergence, 240 h, 1000 g ai/ha, 0 to 100 scale, read-out: Plant response rating, Ryegrass, Italian
In short: as §2

corn (Zea mays) = assay: Test A postemergence; conditions: Zea mays, post-emergence, 240 h, 1000 g ai/ha, 0 to 100 scale
In short: as §2

[17] = test system: barnyardgrass (Echinochloa crus-galli); assay: Test A postemergence; conditions: Echinochloa crus-galli, post-emergence, 240 h, 1000 g ai/ha, 0 to 100 scale, 0 no effect, 100 complete control, read-out: Plant response rating, Barnyardgrass
In short: as §2

[18] = test system: giant foxtail (Setaria faberii); assay: Test A postemergence; conditions: Setaria faberi, post-emergence, 240 h, 1000 g ai/ha, 0 to 100 scale, read-out: Plant response rating, Foxtail, Giant
In short: as §2

[19] = test system: galium (catchweed bedstraw, Galium aparine); assay: Test C preemergence; conditions: Galium, pre-emergence, 336 h, preemergence, scale 0 to 100, read-out: Plant response rating, Galium; for pest or weed control at 31 g/ha: 31 g ai/ha; for pest or weed control at 62 g/ha: 62 g ai/ha; for pest or weed control at 125 g/ha: 125 g ai/ha
In short: (§3)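 Seeded loam-sand soil (preemergence) or young potted plants of 2-18 cm (postemergence) received test chemical formulated with surfactant in a non-phytotoxic solvent. Pots were kept in the greenhouse for 13-15 days before a visual 0-100 control rating relative to controls.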

[20] = test system: lambsquarters (Chenopodium album); assay: Test C preemergence; conditions: Chenopodium album, pre-emergence, 336 h, preemergence, scale 0 to 100, read-out: Plant response rating, Lambsquarters; for pest or weed control at 31 g/ha: 31 g ai/ha; for pest or weed control at 62 g/ha: 62 g ai/ha; for pest or weed control at 125 g/ha: 125 g ai/ha
In short: as §3

[21] = test system: yellow nutsedge (Cyperus esculentus); assay: Test C preemergence; conditions: Cyperus, pre-emergence, 336 h, preemergence, scale 0 to 100, read-out: Plant response rating, Nutsedge, Yellow; for pest or weed control at 31 g/ha: 31 g ai/ha; for pest or weed control at 62 g/ha: 62 g ai/ha; for pest or weed control at 125 g/ha: 125 g ai/ha
In short: as §3

Row | SMILES | plant injury at 250 g/ha (rice (Oryza sativa)) | pest or weed control at 250 g/ha [1] | pest or weed control at 250 g/ha [2] | pest or weed control at 250 g/ha [3] | pest or weed control at 1000 g/ha [4] | pest or weed control at 1000 g/ha [5] | pest or weed control at 1000 g/ha (kochia (Kochia scoparia) [6]) | pest or weed control at 1000 g/ha [7] | pest or weed control at 1000 g/ha [8] | pest or weed control at 1000 g/ha [9] | pest or weed control at 1000 g/ha [10] | pest or weed control at 1000 g/ha [11] | pest or weed control at 1000 g/ha [12] | pest or weed control at 1000 g/ha [13] | plant injury at 1000 g/ha [14] | pest or weed control at 1000 g/ha (kochia (Kochia scoparia) [15]) | pest or weed control at 1000 g/ha [16] | Corn plant response rating (crop injury, 0 = no effect, 100 = complete kill) at 1000 g/ha (corn (Zea mays)) | pest or weed control at 1000 g/ha [17] | pest or weed control at 1000 g/ha [18] | also measured
1 | Fc1cnc(Oc2c(F)cccc2Oc2ncc(Cl)cn2)nc1 [Compound 23] | 60% | 90% | 60% | 80% | 100% | 100% | 100% | 80% | 100% | 100% | 100% | 90% | 90% | 80% | 60% | 90% | 90% | 50% | 90% | 90% | pest or weed control at 31 g/ha [19]: 100%; pest or weed control at 62 g/ha [19]: 100%; pest or weed control at 125 g/ha [19]: 100%; pest or weed control at 31 g/ha [20]: 100%; pest or weed control at 62 g/ha [20]: 100%; pest or weed control at 125 g/ha [20]: 100%; pest or weed control at 31 g/ha [21]: 0%; pest or weed control at 62 g/ha [21]: 10%; pest or weed control at 125 g/ha [21]: 60%
2 | Clc1cnc(Oc2cccc(Cl)c2Oc2ncc(Br)cn2)nc1 [Compound 17, 5-bromo-2-[2-chloro-6-[(5-chloro-2-pyrimidinyl)oxy]phenoxy]pyrimidine] | 35% | 100% | 20% | 100% | 100% | 100% | 100% | 100% | 100% | 100% | 100% | 100% | 90% | 100% | 100% | 100% | 100% | 100% | 100% | 100% | pest or weed control at 31 g/ha [19]: 90%; pest or weed control at 62 g/ha [19]: 98%; pest or weed control at 125 g/ha [19]: 100%; pest or weed control at 31 g/ha [20]: 85%; pest or weed control at 62 g/ha [20]: 90%; pest or weed control at 125 g/ha [20]: 95%; pest or weed control at 31 g/ha [21]: 0%; pest or weed control at 62 g/ha [21]: 10%; pest or weed control at 125 g/ha [21]: 55%
3 | Fc1cnc(Oc2c(Cl)cccc2Oc2ncc(Cl)cn2)nc1 [Compound 18, 5-chloro-2-[5-chloro-6-[(5-fluoro-2-pyrimidinyl)oxy]phenoxy]pyrimidine] | 80% | 100% | 50% | 100% | 100% | 30% | 100% | 70% | 100% | 100% | 100% | 100% | 20% | 100% | 50% | 100% | 100% | 50% | 80% | 100% | pest or weed control at 31 g/ha [19]: 100%; pest or weed control at 62 g/ha [19]: 100%; pest or weed control at 125 g/ha [19]: 100%; pest or weed control at 31 g/ha [20]: 85%; pest or weed control at 62 g/ha [20]: 95%; pest or weed control at 125 g/ha [20]: 95%; pest or weed control at 31 g/ha [21]: 0%; pest or weed control at 62 g/ha [21]: 25%; pest or weed control at 125 g/ha [21]: 25%
